“And” between values parts separate entries of the source, which are not always exact repeats. Equal entries are not always repeated.
Tests used:
Conditions in all cases: incubation time: 72 h
BT-474 [1] = assay: normalised response (% of control), CellTiter-Glo; higher = more viable cells (100 = DMSO, 0 = benzethonium chloride kill control)
Procedure, shortened: (§1)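 Values are normalised signals, each belonging to one concentration of the series. Breast cancer cells (20 µl suspension) were seeded into 384-well plates with compound at 5 concentrations in 10-fold steps over a compound-specific 10,000-fold range and incubated 72 h. Readouts were CellTox Green fluorescence (485/520 nm), then CellTiter-Glo luminescence after 10 min at room temperature, with each plate set to 0.1 % DMSO as 100 and a positive kill control as 0.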

BT-549 [2] = assay: as above
Procedure, shortened: as §1

CAL-120 [3] = assay: as above
Procedure, shortened: as §1

CAL-148 [4] = assay: as above
Procedure, shortened: as §1

CAL-51 [5] = assay: as above
Procedure, shortened: as §1

CAL-85-1 [6] = assay: as above
Procedure, shortened: as §1

DU-4475 [7] = assay: as above
Procedure, shortened: as §1

HCC1143 [8] = assay: as above
Procedure, shortened: as §1

HCC1599 [9] = assay: as above
Procedure, shortened: as §1

HCC1937 [10] = assay: as above
Procedure, shortened: as §1

HDQ-P1 [11] = assay: as above
Procedure, shortened: as §1

Hs578T [12] = assay: as above
Procedure, shortened: as §1

MCF-10A = assay: as above
Procedure, shortened: as §1

MDA-MB-231 [13] = assay: as above
Procedure, shortened: as §1

MDA-MB-436 [14] = assay: as above
Procedure, shortened: as §1

MDA-MB-453 [15] = assay: as above
Procedure, shortened: as §1

MDA-MB-468 [16] = assay: as above
Procedure, shortened: as §1

MFM-223 [17] = assay: as above
Procedure, shortened: as §1

SK-BR-3 [18] = assay: as above
Procedure, shortened: as §1

BT-474 [19] = assay: normalised viability (% of control), CellTiter-Blue; higher = more viable cells (100 = DMSO, 0 = benzethonium chloride kill control)
Procedure, shortened: (§2)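 Seeded at 20 µl suspension per well onto compound-loaded 384-well plates, breast cancer cell lines were incubated 72 h. CellTiter-Blue fluorescence at 560/590 nm was then read, with each plate normalised to vehicle (100) and a positive kill control (0). Normalised viability is reported at a single listed concentration of the series.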

BT-549 [20] = assay: as above
Procedure, shortened: as §2

CAL-120 [21] = assay: as above
Procedure, shortened: as §2

CAL-148 [22] = assay: as above
Procedure, shortened: as §2

CAL-51 [23] = assay: as above
Procedure, shortened: as §2

CAL-85-1 [24] = assay: as above
Procedure, shortened: as §2

DU-4475 [25] = assay: as above
Procedure, shortened: as §2

HCC1143 [26] = assay: as above
Procedure, shortened: as §2

HCC1599 [27] = assay: as above
Procedure, shortened: as §2

HCC1937 [28] = assay: as above
Procedure, shortened: as §2

HDQ-P1 [29] = assay: as above
Procedure, shortened: as §2

Hs578T [30] = assay: as above
Procedure, shortened: as §2

MDA-MB-231 [31] = assay: as above
Procedure, shortened: as §2

MDA-MB-436 [32] = assay: as above
Procedure, shortened: as §2

MDA-MB-453 [33] = assay: as above
Procedure, shortened: as §2

MDA-MB-468 [34] = assay: as above
Procedure, shortened: as §2

MFM-223 [35] = assay: as above
Procedure, shortened: as §2

SK-BR-3 [36] = assay: as above
Procedure, shortened: as §2

Compound	normalised response (BT-474 [1])	normalised response (BT-549 [2])	normalised response (CAL-120 [3])	normalised response (CAL-148 [4])	normalised response (CAL-51 [5])	normalised response (CAL-85-1 [6])	normalised response (DU-4475 [7])	normalised response (HCC1143 [8])	normalised response (HCC1599 [9])	normalised response (HCC1937 [10])	normalised response (HDQ-P1 [11])	normalised response (Hs578T [12])	normalised response (MCF-10A)	normalised response (MDA-MB-231 [13])	normalised response (MDA-MB-436 [14])	normalised response (MDA-MB-453 [15])	normalised response (MDA-MB-468 [16])	normalised response (MFM-223 [17])	normalised response (SK-BR-3 [18])	normalised viability (BT-474 [19])	normalised viability (BT-549 [20])	normalised viability (CAL-120 [21])	normalised viability (CAL-148 [22])	normalised viability (CAL-51 [23])	normalised viability (CAL-85-1 [24])	normalised viability (DU-4475 [25])	normalised viability (HCC1143 [26])	normalised viability (HCC1599 [27])	normalised viability (HCC1937 [28])	normalised viability (HDQ-P1 [29])	normalised viability (Hs578T [30])	normalised viability (MDA-MB-231 [31])	normalised viability (MDA-MB-436 [32])	normalised viability (MDA-MB-453 [33])	normalised viability (MDA-MB-468 [34])	normalised viability (MFM-223 [35])	normalised viability (SK-BR-3 [36])
COc1cc(Nc2c(C#N)cnc3cc(OCCCN4CCN(C)CC4)c(OC)cc23)c(Cl)cc1Cl [Bosutinib] (1 nM)	98.8%	98.4%	92.6%	104%	99.9%	96.4%	101%	93%	112%	97.3%	99.6%	95.6%	99.9%	93.1%	96.6%	101%	101%	99.3%	104%	116%	111%	84.3%	94.8%	112%	88.8%	105%	94%	103%	80.1%	108%	110%	100%	113%	113%	112%	93.1%	106%
CC(=O)[C@]1(O)Cc2c(O)c3c(c(O)c2[C@@H](O[C@H]2C[C@H](N)[C@H](O)[C@H](C)O2)C1)C(=O)c1ccccc1C3=O [Idarubicin] (0.1 nM)	106%	105%	105%	110%	101%	102%	103%	109%	102%	100%	101%	107%	103%	109%	112%	101%	112%	108%	105%	99.8%	109%	101%	102%	102%	95.7%	92.2%	103%	96.6%	92.9%	115%	112%	78%	112%	101%	130%	97%	95.3%
COc1ccc(S(=O)(=O)Nc2cccnc2Nc2ccc(O)cc2)cc1 [ABT-751] (1 nM)	98.9%	109%	95.8%	97.6%	108%	94.6%	103%	96.1%	95.8%	96.5%	96.8%	101%	91.5%	104%	93%	95.2%	98.4%	93.9%	84.4%	100%	110%	84.7%	96.9%	109%	88.4%	96.5%	95.5%	90%	90.3%	114%	105%	95.8%	85.8%	90.5%	102%	92.1%	87.2%
Cc1cn(-c2cc(NC(=O)c3ccc(C)c(Nc4nccc(-c5cccnc5)n4)c3)cc(C(F)(F)F)c2)cn1 [Nilotinib] (1 nM)	93.5%	102%	98.5%	93.1%	98.1%	105%	105%	95.8%	112%	96.1%	96.9%	100%	95.4%	98.8%	95.7%	101%	106%	96%	103%	87.9% and 96%	107% and 98.7%	82.1% and 80.6%	91.4% and 96.9%	106% and 112%	82.6% and 95.6%	110% and 104%	87.8% and 80.8%	103% and 87.9%	95.5% and 94%	83.1% and 101%	97.8% and 107%	83.9% and 95.6%	111% and 89.4%	88.4% and 92.2%	96% and 99.2%	94% and 90.9%	93.3% and 92.6%
CO[C@@]12[C@H](COC(N)=O)C3=C(C(=O)C(C)=C(N)C3=O)N1C[C@@H]1N[C@@H]12 [Mitomycin C] (1 nM)	92.3%	105%	94.3%	95.3%	82.6%	99.7%	95.1%	96%	72.6%	94.6%	98.8%	101%	93.2%	95.1%	82.4%	97.5%	90.4%	93.9%	100%	86.7%	87.3%	93.9%	109%	110%	96.3%	104%	98.8%	94.8%	106%	118%	134%	87.4%	96.9%	102%	94.3%	91.1%	90.3%
CNC(=O)c1ccccc1Sc1ccc2c(/C=C/c3ccccn3)n[nH]c2c1 [Axitinib] (1 nM)	98.6%	110%	104%	103%	78.7%	99.8%	104%	102%	103%	107%	105%	98.1%	101%	111%	95.3%	109%	105%	107%	109%	93.5%	96.2%	77.4%	94.9%	101%	86.8%	115%	101%	92.4%	110%	73.7%	97.6%	88.4%	98%	95.6%	102%	95.5%	104%
CC(C)(C)NC(=O)[C@H]1CC[C@H]2[C@@H]3CC[C@H]4NC(=O)C=C[C@]4(C)[C@H]3CC[C@]12C [Finasteride] (1 nM)	101%	103%	99.5%	103%	94.5%	96%	102%	99%	98.8%	96.1%	102%	104%	111%	107%	99.5%	112%	104%	102%	103%	72.8%	93.1%	104%	110%	108%	97%	96.7%	107%	91.6%	100%	133%	108%	108%	98.7%	109%	105%	96.4%	74.8%
CCNC(=O)c1noc(-c2cc(C(C)C)c(O)cc2O)c1-c1ccc(CN2CCOCC2)cc1 [NVP-AUY922] (0.1 nM)	113%	107%	107%	110%	94.8%	107%	102%	101%	123%	104%	102%	94.9%	105%	106%	102%	106%	105%	106%	108%	109%	97.2%	111%	104%	99.5%	104%	109%	121%	103%	91.2%	81.1%	150%	121%	99.6%	114%	106%	99.4%	94.8%
